Structures can show the parent of a compound that is named as a salt. One block for each compound: values may come before it.
Experiments:
Assay in all cases: MIC, NCCLS broth microdilution
Type in all cases: cell-based
Acinetobacter sp. J2 = settings: for MIC of antibiotic at fixed inhibitor concentration (4 mg/L): Acinetobacter sp. J2, MIC of antibiotic compound 1 with the labelled bridged monobactam of formula II and clavulanate, 4 mg/L each
[1] = test system: Pseudomonas aeruginosa MK1184; settings: for MIC of antibiotic at fixed inhibitor concentration (4 mg/L): MIC of antibiotic compound 1 with the labelled bridged monobactam of formula II and clavulanate, 4 mg/L each
[2] = test system: Pseudomonas aeruginosa 1973E; settings: for MIC of antibiotic at fixed inhibitor concentration (4 mg/L): MIC of antibiotic compound 1 with the labelled bridged monobactam of formula II and clavulanate, 4 mg/L each
How it was run: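 Growth inhibition read by eye after overnight incubation (30° C. or 37° C.) defines the MIC, using NCCLS M7-A5 broth microdilution with ≤1% DMSO. When combinations were tested, only the formula I compound was titrated and each partner was fixed at 4 μg/mL.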

Enterobacter cloacae P99 = settings: for MIC of antibiotic at fixed inhibitor concentration (4 mg/L): MIC of antibiotic compound 1 with the labelled bridged monobactam of formula II and clavulanate, 4 mg/L each
[3] = test system: Klebsiella pneumoniae CF104; settings: for MIC of antibiotic at fixed inhibitor concentration (4 mg/L): MIC of antibiotic compound 1 with the labelled bridged monobactam of formula II and clavulanate, 4 mg/L each
Serratia marcescens S6 = settings: for MIC of antibiotic at fixed inhibitor concentration (4 mg/L): MIC of antibiotic compound 1 with the labelled bridged monobactam of formula II and clavulanate, 4 mg/L each
[4] = test system: Stenotrophomonas malthophilia 1AC736; settings: for MIC of antibiotic at fixed inhibitor concentration (4 mg/L): Stenotrophomonas malthophilia 1AC736, MIC of antibiotic compound 1 with the labelled bridged monobactam of formula II and clavulanate, 4 mg/L each

MIC of antibiotic (Acinetobacter sp. J2; Acinetobacter baumannii J2, antibiotic alone, no inhibitor): >32 µg/mL
MIC of antibiotic at fixed inhibitor concentration of 4 mg/L (Acinetobacter sp. J2; Acinetobacter baumannii J2, with 102 and clavulanate): >32 µg/mL
MIC of antibiotic at fixed inhibitor concentration of 4 mg/L (Acinetobacter sp. J2; Acinetobacter baumannii J2, with 102 and sulbactam): 2 µg/mL
MIC of antibiotic at fixed inhibitor concentration of 4 mg/L (Acinetobacter sp. J2; Acinetobacter baumannii J2, with 323 and clavulanate): 8 µg/mL
MIC of antibiotic at fixed inhibitor concentration of 4 mg/L (Acinetobacter sp. J2; Acinetobacter baumannii J2, with 323 and sulbactam): 2 µg/mL
MIC of antibiotic at fixed inhibitor concentration of 4 mg/L (Acinetobacter sp. J2; Acinetobacter baumannii J2, with 324 and sulbactam): 2 µg/mL
MIC of antibiotic ([1]; antibiotic alone, no inhibitor): >32 µg/mL
MIC of antibiotic at fixed inhibitor concentration of 4 mg/L ([1]; with 102 and clavulanate): 16 µg/mL
MIC of antibiotic at fixed inhibitor concentration of 4 mg/L ([1]; with 102 and sulbactam): 32 µg/mL
MIC of antibiotic at fixed inhibitor concentration of 4 mg/L ([1]; with 323 and clavulanate): 32 µg/mL
MIC of antibiotic at fixed inhibitor concentration of 4 mg/L ([1]; with 323 and sulbactam): 8 µg/mL
MIC of antibiotic at fixed inhibitor concentration of 4 mg/L ([1]; with 324 and sulbactam): 32 µg/mL
MIC of antibiotic ([2]; antibiotic alone, no inhibitor): 8 µg/mL
MIC of antibiotic at fixed inhibitor concentration of 4 mg/L ([2]; with 102 and clavulanate): 8 µg/mL
MIC of antibiotic at fixed inhibitor concentration of 4 mg/L ([2]; with 102 and sulbactam): 16 µg/mL
MIC of antibiotic at fixed inhibitor concentration of 4 mg/L ([2]; with 323 and clavulanate): 16 µg/mL
MIC of antibiotic at fixed inhibitor concentration of 4 mg/L ([2]; with 323 and sulbactam): 32 µg/mL
MIC of antibiotic at fixed inhibitor concentration of 4 mg/L ([2]; with 324 and sulbactam): 16 µg/mL
MIC of antibiotic (Enterobacter cloacae P99; antibiotic alone, no inhibitor): >32 µg/mL
MIC of antibiotic at fixed inhibitor concentration of 4 mg/L (Enterobacter cloacae P99; with 102 and clavulanate): 32 µg/mL
MIC of antibiotic at fixed inhibitor concentration of 4 mg/L (Enterobacter cloacae P99; with 102 and sulbactam): 32 µg/mL
MIC of antibiotic at fixed inhibitor concentration of 4 mg/L (Enterobacter cloacae P99; with 323 and clavulanate): 8 µg/mL
MIC of antibiotic at fixed inhibitor concentration of 4 mg/L (Enterobacter cloacae P99; with 323 and sulbactam): 8 µg/mL
MIC of antibiotic at fixed inhibitor concentration of 4 mg/L (Enterobacter cloacae P99; with 324 and sulbactam): 8 µg/mL
MIC of antibiotic ([3]; antibiotic alone, no inhibitor): >32 µg/mL
MIC of antibiotic at fixed inhibitor concentration of 4 mg/L ([3]; with 102 and clavulanate): <0.06 µg/mL
MIC of antibiotic at fixed inhibitor concentration of 4 mg/L ([3]; with 102 and sulbactam): 2 µg/mL
MIC of antibiotic at fixed inhibitor concentration of 4 mg/L ([3]; with 323 and clavulanate): 2 µg/mL
MIC of antibiotic at fixed inhibitor concentration of 4 mg/L ([3]; with 323 and sulbactam): 1 µg/mL
MIC of antibiotic at fixed inhibitor concentration of 4 mg/L ([3]; with 324 and sulbactam): 4 µg/mL
MIC of antibiotic (Serratia marcescens S6; antibiotic alone, no inhibitor): 8 µg/mL
MIC of antibiotic at fixed inhibitor concentration of 4 mg/L (Serratia marcescens S6; with 102 and clavulanate): 0.5 µg/mL
MIC of antibiotic at fixed inhibitor concentration of 4 mg/L (Serratia marcescens S6; with 102 and sulbactam): 16 µg/mL
MIC of antibiotic at fixed inhibitor concentration of 4 mg/L (Serratia marcescens S6; with 323 and clavulanate): 2 µg/mL
MIC of antibiotic at fixed inhibitor concentration of 4 mg/L (Serratia marcescens S6; with 323 and sulbactam): 2 µg/mL
MIC of antibiotic at fixed inhibitor concentration of 4 mg/L (Serratia marcescens S6; with 324 and sulbactam): 4 µg/mL
MIC of antibiotic ([4]; Stenotrophomonas maltophilia 1AC736, antibiotic alone, no inhibitor): 8 µg/mL
MIC of antibiotic at fixed inhibitor concentration of 4 mg/L ([4]; Stenotrophomonas maltophilia 1AC736, with 102 and clavulanate): 2 µg/mL
MIC of antibiotic at fixed inhibitor concentration of 4 mg/L ([4]; Stenotrophomonas maltophilia 1AC736, with 102 and sulbactam): 8 µg/mL
MIC of antibiotic at fixed inhibitor concentration of 4 mg/L ([4]; Stenotrophomonas maltophilia 1AC736, with 323 and clavulanate): 2 µg/mL
MIC of antibiotic at fixed inhibitor concentration of 4 mg/L ([4]; Stenotrophomonas maltophilia 1AC736, with 323 and sulbactam): 4 µg/mL
MIC of antibiotic at fixed inhibitor concentration of 4 mg/L ([4]; Stenotrophomonas maltophilia 1AC736, with 324 and sulbactam): 4 µg/mL
Compound: C[C@H]1[C@H](NC(=O)/C(=N\OCc2cc(=O)c(O)cn2O)c2nccc(N)n2)C(=O)N1S(=O)(=O)O [Compound 21, (3S,4S)-3-{(2Z)-2-(4-aminopyrimidin-2-yl)-3-[(1,5-dihydroxy-4-oxo(2-hydropyridyl))methoxy]-3-azaprop-2-enoylamino}-4-methyl-2-oxoazetidinesulfonic acid]

MIC of antibiotic at fixed inhibitor concentration (4 mg/L) (Acinetobacter sp. J2): 4 µg/mL
MIC of antibiotic at fixed inhibitor concentration (4 mg/L) [1]: >32 µg/mL
MIC of antibiotic at fixed inhibitor concentration (4 mg/L) [2]: 4 µg/mL
MIC of antibiotic at fixed inhibitor concentration (4 mg/L) (Enterobacter cloacae P99): 8 µg/mL
MIC of antibiotic at fixed inhibitor concentration (4 mg/L) [3]: 1 µg/mL
MIC of antibiotic at fixed inhibitor concentration (4 mg/L) (Serratia marcescens S6): 0.25 µg/mL
MIC of antibiotic at fixed inhibitor concentration (4 mg/L) [4]: 0.125 µg/mL
Compound: NC(=O)Nc1ccc(NC(=O)N2CC[C@@H]3[C@H]2C(=O)N3S(=O)(=O)[O-])cc1.[Na+] [Compound 315]

MIC of antibiotic at fixed inhibitor concentration (4 mg/L) (Acinetobacter sp. J2): 4 µg/mL
MIC of antibiotic at fixed inhibitor concentration (4 mg/L) [1]: 8 µg/mL
MIC of antibiotic at fixed inhibitor concentration (4 mg/L) [2]: 4 µg/mL
MIC of antibiotic at fixed inhibitor concentration (4 mg/L) (Enterobacter cloacae P99): 4 µg/mL
MIC of antibiotic at fixed inhibitor concentration (4 mg/L) [3]: <0.06 µg/mL
MIC of antibiotic at fixed inhibitor concentration (4 mg/L) (Serratia marcescens S6): 0.25 µg/mL
MIC of antibiotic at fixed inhibitor concentration (4 mg/L) [4]: 0.125 µg/mL
Compound: Cc1ccc(C(N)=O)c[n+]1CC(=O)N1CC[C@@H]2[C@H]1C(=O)N2S(=O)(=O)[O-] [Compound 111, (1S,5R)-2-[2-(3-carbamoyl-6-methylpyridinium)acetyl]-7-oxo-2,6-diazabicyclo[3.2.0]heptane-6-sulfonate, inner salt]

MIC of antibiotic at fixed inhibitor concentration (4 mg/L) (Acinetobacter sp. J2): 8 µg/mL
MIC of antibiotic at fixed inhibitor concentration (4 mg/L) [1]: >32 µg/mL
MIC of antibiotic at fixed inhibitor concentration (4 mg/L) [2]: 2 µg/mL
MIC of antibiotic at fixed inhibitor concentration (4 mg/L) (Enterobacter cloacae P99): 32 µg/mL
MIC of antibiotic at fixed inhibitor concentration (4 mg/L) [3]: 4 µg/mL
MIC of antibiotic at fixed inhibitor concentration (4 mg/L) (Serratia marcescens S6): 0.5 µg/mL
MIC of antibiotic at fixed inhibitor concentration (4 mg/L) [4]: 0.125 µg/mL
Compound: NC(C(=O)N1CC[C@@H]2[C@H]1C(=O)N2S(=O)(=O)O)c1ccc(O)c(O)c1 (stereo partly shown) [Compound 403]

MIC of antibiotic at fixed inhibitor concentration of 4 mg/L (Acinetobacter sp. J2; Acinetobacter baumannii J2, with sulbactam): 32 µg/mL
MIC of antibiotic at fixed inhibitor concentration of 4 mg/L ([1]; with sulbactam): >32 µg/mL
MIC of antibiotic at fixed inhibitor concentration of 4 mg/L ([2]; with sulbactam): >32 µg/mL
MIC of antibiotic at fixed inhibitor concentration of 4 mg/L (Enterobacter cloacae P99; with sulbactam): >32 µg/mL
MIC of antibiotic at fixed inhibitor concentration of 4 mg/L ([3]; with sulbactam): >32 µg/mL
MIC of antibiotic at fixed inhibitor concentration of 4 mg/L (Serratia marcescens S6; with sulbactam): >32 µg/mL
MIC of antibiotic at fixed inhibitor concentration of 4 mg/L ([4]; Stenotrophomonas maltophilia 1AC736, with sulbactam): 32 µg/mL
Compound: CC1(C)S[C@@H]2[C@H](NC(=O)[C@H](N)c3ccccc3)C(=O)N2[C@H]1C(=O)O [Ampicillin, ampicillin, reference compound]
